{"source": "patent US12303474B2", "about": "“S-enantiomerically enriched compositions of beta blockers for treating amyotrophic lateral sclerosis” (priority 2013, dated 2025)", "key": {"[1]": {"test_system": "G93A SOD1 B6SJL hybrid (G93A) model", "conditions": "3 mg/kg/day; placebo 28 days", "description": "To study the effect of S-oxprenolol on survival, survival was monitored over time."}, "[2]": {"test_system": "G93A SOD1 B6SJL hybrid (G93A) model", "conditions": "30 mg/kg/d; for Heart / gastrocnemius: end of study", "protocol": "(§1) Transgenic mice over-expressing a high copy number (25 copies) of mutated human SOD1 gene with a G93A point mutation, i.e., B6SJL-TgN [SOD1-G93A]1 Gur (G1H-G93A transgenic mice, JR2726; Hemizygote) (Gurney M E, et al., Science, 264, 1772-1775, 1994) (“G93A SOD1 B6SJL hybrid (G93A) model”), were used.\nTo study the effect of the test compounds on skeletal muscle atrophy, the skeletal muscle mass were determined at the end of the study.\nThe number of all mice in the population is indicated as “n” in at the bottom of FIGS. 21A-21C.\nThe number of all mice in the population is indicated as “n” in at the bottom of FIGS. 20D-20F.\nThe number of all mice in the population is indicated as “n” in at the bottom of FIGS. 21G-21I."}, "[3]": {"test_system": "G93A SOD1 B6SJL hybrid (G93A) model", "assay": "Body weight and body composition (lean mass, fat mass; NMR scans) in G93A SOD1 transgenic mice", "type": "in vivo", "conditions": "30 mg/kg/d; for Average Δ body weight / Average Δ fat mass / Average Δ lean mass: per day alive after disease onset", "text": "as §1\n[…] […] There were 16 mice in the S-oxprenolol group.\nThe primary endpoint was survival, humanely defined as the ability of the animal to right itself in 30 seconds after being laid on its side. Secondary endpoints were body weight, body composition, spontaneous activity and food intake. Body weight of the animals was assessed weekly until onset of disease. Additionally, body composition (fat mass and lean body mass) was assessed using NMR scans (EchoMRI-100, Echo Medical Systems, Houston, USA) every 4 days. After onset of disease, body weight and body composition were assessed every two days until the end of the study. All personal handling the animals was strictly blinded to the randomized treatment allocation.\nTo study the effect of S-oxprenolol on body weight, body weight was monitored over time.\nTo study the effect of the test compounds on lean body mass, lean mass was determined at the end of the study.\nTo study the effect of the test compounds on fat mass, the fat mass were determined at the end of the study.\nTo study the effect of S-oxprenolol on body weight, body weight was monitored over time. […] The number of all mice in the population is indicated as “n” in at the bottom of FIGS. 20A-20C.\nTo study the effect of the test compounds on lean body mass, lean mass was determined at the end of the study. […] The number of all mice in the population is indicated as “n” in at the bottom of FIGS. 20D-20F.\nTo study the effect of the test compounds on fat mass, the fat mass were determined at the end of the study. […] The number of all mice in the population is indicated as “n” in at the bottom of FIGS. 20G-20I."}, "[4]": {"test_system": "G93A SOD1 B6SJL hybrid (G93A) model", "assay": "Disease progression score (JAX SOP) in G93A SOD1 transgenic mice", "conditions": "30 mg/kg/day vs. placebo", "description": "The disease progression score is based on the JAX SOP (Ludolph A C, Bendotti C, Blaugrund E, Hengerer B, Loffler J P, Martin J, Meininger V, Meyer T, Moussaoui S, Robberecht W, Scott S, Silani V, Van Den Berg L H (ENMC Group For The Establishment Of Guidelines For The Conduct Of Preclinical And Proof Of Concept Studies In ALS/MND Models). 2007, which is incorporated by reference)."}}, "note": "Like-named read-outs stand apart in the source and are kept apart here.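 Throughout, for Median survival after onset of ALS symptoms: dosing began after ALS onset in G93A SOD1 mice, with survival as the endpoint, defined humanely as the animal failing to regain upright posture within 30 s when placed sideways.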", "data": [{"smiles": "CC(C)NCC(O)COc1cccc2[nH]ccc12", "note": "(stereo not shown) [S-pindolol]", "values": [{"measurement": "Median survival after onset of ALS symptoms", "setting": "[1]", "value": 31, "unit": "days"}]}, {"smiles": "Nc1nc2ccc(OC(F)(F)F)cc2s1", "note": "[rilutek]", "values": [{"measurement": "EDL (extensor digitorum longus)", "setting": "[2]; all mice", "value": "6.71 ± 0.32", "unit": "mg"}, {"measurement": "soleus", "setting": "[2]; all mice", "value": "5.47 ± 0.39", "unit": "mg"}, {"measurement": "Heart", "setting": "[2]; all mice", "value": "103.5 ± 2.8", "unit": "mg"}, {"measurement": "gastrocnemius", "setting": "[2]; all mice", "value": "55.2 ± 3.0", "unit": "mg"}, {"measurement": "EDL (extensor digitorum longus)", "setting": "[2]; female mice", "value": "6.28 ± 039", "unit": "mg"}, {"measurement": "soleus", "setting": "[2]; female mice", "value": "5.26 ± 0.48", "unit": "mg"}, {"measurement": "Heart", "setting": "[2]; female mice", "value": "91.4 ± 2.3", "unit": "mg"}, {"measurement": "gastrocnemius", "setting": "[2]; female mice", "value": "54.1 ± 3.8", "unit": "mg"}, {"measurement": "EDL (extensor digitorum longus)", "setting": "[2]; male mice", "value": "7.20 ± 0.51", "unit": "mg"}, {"measurement": "soleus", "setting": "[2]; male mice", "value": "5.72 ± 0.64", "unit": "mg"}, {"measurement": "Heart", "setting": "[2]; male mice", "value": "115.6 ± 2.4", "unit": "mg"}, {"measurement": "gastrocnemius", "setting": "[2]; male mice", "value": "58.3 ± 4.9", "unit": "mg"}, {"measurement": "Δ body weight", "setting": "[3]; all mice", "value": "-5.10 ± 0.35", "unit": "g"}, {"measurement": "Δ fat mass", "setting": "[3]; all mice", "value": "-1.91 ± 0.15", "unit": "g"}, {"measurement": "Δ lean mass", "setting": "[3]; all mice", "value": "-3.71 ± 0.27", "unit": "g"}, {"measurement": "Average Δ body weight", "setting": "[3]; all mice", "value": "-121.6 ± 15.2", "unit": "mg/day"}, {"measurement": "Average Δ fat mass", "setting": "[3]; all mice", "value": "-50.1 ± 6.1", "unit": "mg/day"}, {"measurement": "Average Δ lean mass", "setting": "[3]; all mice", "value": "-92.31 ± 15.84", "unit": "mg/day"}, {"measurement": "Δ body weight", "setting": "[3]; female mice", "value": "-4.49 ± 0.46", "unit": "g"}, {"measurement": "Δ fat mass", "setting": "[3]; female mice", "value": "-1.76 ± 0.21", "unit": "g"}, {"measurement": "Δ lean mass", "setting": "[3]; female mice", "value": "-3.31 ± 0.37", "unit": "g"}, {"measurement": "Average Δ body weight", "setting": "[3]; female mice", "value": "-122.9 ± 25.7", "unit": "mg/day"}, {"measurement": "Average Δ fat mass", "setting": "[3]; female mice", "value": "-42.2 ± 6.1", "unit": "mg/day"}, {"measurement": "Average Δ lean mass", "setting": "[3]; female mice", "value": "-96.9 ± 24.2", "unit": "mg/day"}, {"measurement": "Δ body weight", "setting": "[3]; male mice", "value": "-5.91 ± 0.43", "unit": "g"}, {"measurement": "Δ fat mass", "setting": "[3]; male mice", "value": "-2.09 ± 0.22", "unit": "g"}, {"measurement": "Δ lean mass", "setting": "[3]; male mice", "value": "-4.19 ± 0.38", "unit": "g"}, {"measurement": "Average Δ body weight", "setting": "[3]; male mice", "value": "-120.4 ± 17.9", "unit": "mg/day"}, {"measurement": "Average Δ fat mass", "setting": "[3]; male mice", "value": "-57.5 ± 11.3", "unit": "mg/day"}, {"measurement": "Average Δ lean mass", "setting": "[3]; male mice", "value": "-87.4 ± 21.1", "unit": "mg/day"}, {"measurement": "HR Progression from score 1 to score 2 (FIG. 17)", "setting": "[4]", "value": 0.82}, {"measurement": "HR Progression from score 1 to score 3 (FIG. 19)", "setting": "[4]", "value": 0.76}, {"measurement": "HR Progression from score 2 to score 3 (FIG. 18)", "setting": "[4]", "value": 0.68}]}]}
